Results on 1 compound are retold here after US9562046B2, “Means and method for treating solid tumors” (Vivolux AB, priority 2012, dated 2017).

Each structure is given as a SMILES string.

For one data set, the system named is NMRI mice. Kind of data set: Intravenous tolerability / systemic toxicity in NMRI mice. The format is in vivo. As to the method: (§1) The compound of the invention (compound 11) was injected intravenously in NMRI mice. […] The compound was rapidly distributed and finally eliminated with a half-life of 4˜5 h. The systemic toxicity of the compound of the invention is low.

Assay in data set [1]: as above
The class given is in vivo. The conditions noted are these: mouse, in vivo, iv, injected intravenously, read-out: maximally tolerated dose (MTD). The method, then:
as §1

A short description of data set [2]: Stability studies at room temperature in 5% aqueous mannitol. The class given is physicochemical. The conditions noted are these: dihydrochloride/ethanol complex, storage for 100 h. As to the method:
Stability studies at room temperature were conducted with from 0.1 mg/L to 15 mg/L of the dihydrochloride/ethanol complex in 5% aqueous mannitol (to provide for isotonicity). […] For instance, about 2.5% compound 11 is degraded after storage for 100 h of a solution comprising 15 mg compound per liter, while about 5% of the compound is degraded in a solution comprising 2 mg compound per liter, and about 13 of the compound in a solution comprising 0.1 mg compound per liter.

A short description of data set [3]: Plasma pharmacokinetics after intravenous injection in NMRI mice. The class given is in vivo. As to the method:
as §1

Usually MTD stands for the largest dose that counted as tolerated. What is called half-life is the time in which the quantity being followed falls by half. As to `C/C(=N/Nc1ccc2c(n1)[nH]c1c(C)cccc12)c1ccccn1` [compound 11, 2-[(1Z)-1-(2-{8-Methyl-8H, 8aH, 9H-pyrido[2,3-b]indol-2-yl}hydrazin-1-ylidene)ethyl]-pyridine], the “changes in plasma parameters (liver ALT, blood glucose, total protein)” value in the data set on NMRI mice (doses up to 4.5 mg/kg) is reported as “did not produce noteworthy changes”. In addition, in the data set on NMRI mice (doses up to 4.5 mg/kg), the “effect on the animals' weight gain” value was “nor did they prevent the animals from gaining weight”. For the same compound, the systemic toxicity result in the data set with NMRI mice (intravenous) is reported as “low”. Besides, in data set [1], the MTD stood at 16 mg/kg. The compound degraded entry is given as “about 13” in data set [2] (0.1 mg compound per liter), “about 5%” in data set [2] (2 mg compound per liter) and “about 2.5%” in data set [2] (15 mg compound per liter). The “initial plasma concentration relative to the IC50 of tumor cell lines and primary patient colorectal cancer cells in vitro” value in data set [3] (at MTD of 16 mg/kg) was above 10 fold. The half-life in data set [3] (mouse, plasma, 16 mg/kg, NMRI mice, read-out: elimination half-life) fell in the range of 4 to 5 h. The C0 in data set [3] (mouse, plasma, at MTD of 16 mg/kg, NMRI mice, read-out: initial plasma concentration) is around 100 µM.
